Several values for one entry are separate records, joined by “and”; a condition that tells them apart may be missing. Equal values may be shown once. Read-outs that look alike come from different tables or passages of the source.
How the values were obtained:
OAT3 = tested on: OAT3; parameters: method as in unpublished data; conditions: preclinical studies; ref unpublished data; cited from earlier work
plasma protein = tested on: plasma protein; parameters: method as in unpublished data; conditions: preclinical studies; ref unpublished data; cited from earlier work
[1] = for GP1707D07 concentration: Period 1 GP681 monotherapy, individual subjects; for GP1707D07 concentration, Geo Mean / GP1707D07 concentration, Mean: plasma; for GP1707D07 concentration, Geo Mean: Geo Mean of subjects 301-312, Period 2 GP681-itraconazole co-administration; for GP1707D07 concentration, Mean: Mean of subjects 301-312, Period 2 GP681-itraconazole co-administration
[2] = parameters: method as in Phase I study; conditions: ref Phase I study, cited from earlier work
CYP3A4 = conditions: preclinical in vitro studies; cited from earlier work
liver enzymes = tested on: liver enzymes; parameters: method as in unpublished data; conditions: preclinical studies; ref unpublished data; cited from earlier work

SMILES: O=C1c2c(O)c(=O)ccn2N([C@@H]2c3ccccc3SCc3c2ccc(F)c3F)[C@@H]2COC3(CC3)CN12 [GP1707D07]
- inhibition of transport activity of OAT3 (OAT3): nor do they inhibit the transport activity
- plasma protein binding rate (plasma protein): high plasma protein binding rate
- time from which GP1707D07 concentrations exceed the clinical effective concentration ([1]; GP681 20 mg + itraconazole, post-dose, threshold 6.87 ng/mL): 1 h
- GP1707D07 concentration ([1]; 0.5h): 17.9 ng/mL and 0.6 ng/mL and 10.8 ng/mL and 2.8 ng/mL and 8.3 ng/mL and 1.4 ng/mL
- GP1707D07 concentration ([1]; 1h): 23.5 ng/mL and 1.8 ng/mL and 16.5 ng/mL and 6.2 ng/mL and 10.1 ng/mL and 5.6 ng/mL
- GP1707D07 concentration ([1]; 2h): 33.1 ng/mL and 4.5 ng/mL and 26.9 ng/mL and 7.2 ng/mL and 12.6 ng/mL and 9.4 ng/mL
- GP1707D07 concentration ([1]; 3h): 44.4 ng/mL and 11.9 ng/mL and 25.1 ng/mL and 6.4 ng/mL and 14.2 ng/mL and 10.4 ng/mL
- GP1707D07 concentration ([1]; 4h): 36.1 ng/mL and 13.4 ng/mL and 24.0 ng/mL and 5.7 ng/mL and 15.4 ng/mL and 11.0 ng/mL
- GP1707D07 concentration ([1]; 5h): 30.8 ng/mL and 14.9 ng/mL and 20.4 ng/mL and 7.0 ng/mL and 15.5 ng/mL and 12.0 ng/mL
- GP1707D07 concentration ([1]; 6h): 30.7 ng/mL and 18.0 ng/mL and 19.4 ng/mL and 7.0 ng/mL and 15.2 ng/mL and 11.0 ng/mL
- GP1707D07 concentration ([1]; 8h): 24.5 ng/mL and 14.2 ng/mL and 17.9 ng/mL and 6.9 ng/mL and 13.5 ng/mL and 9.5 ng/mL
- GP1707D07 concentration ([1]; 12h): 21.5 ng/mL and 12.6 ng/mL and 14.5 ng/mL and 6.6 ng/mL and 11.1 ng/mL and 8.8 ng/mL and 20.0 ng/mL
- GP1707D07 concentration ([1]; 24h): 17.5 ng/mL and 10.3 ng/mL and 12.6 ng/mL and 5.4 ng/mL and 10.1 ng/mL and 6.3 ng/mL and 14.7 ng/mL
- GP1707D07 concentration ([1]; 36h): 14.8 ng/mL and 8.1 ng/mL and 10.5 ng/mL and 4.4 ng/mL and 8.8 ng/mL and 5.4 ng/mL and 11.8 ng/mL
- GP1707D07 concentration ([1]; 48h): 12.3 ng/mL and 6.9 ng/mL and 7.4 ng/mL and 3.9 ng/mL and 6.7 ng/mL and 5.1 ng/mL and 9.0 ng/mL
- GP1707D07 concentration ([1]; 72h): 7.8 ng/mL and 5.1 ng/mL and 4.9 ng/mL and 3.2 ng/mL and 6.0 ng/mL and 3.6 ng/mL and 7.6 ng/mL
- GP1707D07 concentration ([1]; 120h): 4.8 ng/mL and 3.5 ng/mL and 3.2 ng/mL and 1.7 ng/mL and 4.0 ng/mL and 2.1 ng/mL and 3.6 ng/mL
- GP1707D07 concentration ([1]; 168h): 2.4 ng/mL and 2.0 ng/mL and 1.9 ng/mL and 1.1 ng/mL and 2.2 ng/mL and 1.3 ng/mL
- GP1707D07 concentration ([1]; 264h): 1.3 ng/mL and 1.0 ng/mL and 0.8 ng/mL and 0.7 ng/mL
- GP1707D07 concentration, Geo Mean ([1]; D26, 0.5h): 4.4 ng/mL
- GP1707D07 concentration, Geo Mean ([1]; D26, 1h): 8.5 ng/mL
- GP1707D07 concentration, Geo Mean ([1]; D26, 2h): 15.2 ng/mL
- GP1707D07 concentration, Geo Mean ([1]; D26, 3h): 17.9 ng/mL
- GP1707D07 concentration, Geo Mean ([1]; D26, 4h): 19.7 ng/mL
- GP1707D07 concentration, Geo Mean ([1]; D26, 5h): 20.9 ng/mL
- GP1707D07 concentration, Geo Mean ([1]; D26, 6h): 20.4 ng/mL
- GP1707D07 concentration, Geo Mean ([1]; D26, 8h): 19.0 ng/mL
- GP1707D07 concentration, Geo Mean ([1]; D26, 12h): 16.7 ng/mL
- GP1707D07 concentration, Geo Mean ([1]; D26, 24h): 14.9 ng/mL
- GP1707D07 concentration, Geo Mean ([1]; D26, 36h): 13.5 ng/mL
- GP1707D07 concentration, Geo Mean ([1]; D26, 48h): 12.1 ng/mL
- GP1707D07 concentration, Geo Mean ([1]; D26, 72h): 9.6 ng/mL
- GP1707D07 concentration, Geo Mean ([1]; D26, 120h): 6.8 ng/mL
- GP1707D07 concentration, Geo Mean ([1]; D26, 168h): 5.1 ng/mL
- GP1707D07 concentration, Geo Mean ([1]; D26, 264h): 3.2 ng/mL
- GP1707D07 concentration, Mean ([1]; D26, 0h): 0.0 ng/mL
- GP1707D07 concentration, Mean ([1]; D26, 0.5h): 6.4 ng/mL
- GP1707D07 concentration, Mean ([1]; D26, 1h): 10.4 ng/mL
- GP1707D07 concentration, Mean ([1]; D26, 2h): 17.0 ng/mL
- GP1707D07 concentration, Mean ([1]; D26, 3h): 19.7 ng/mL
- GP1707D07 concentration, Mean ([1]; D26, 4h): 21.3 ng/mL
- GP1707D07 concentration, Mean ([1]; D26, 5h): 22.0 ng/mL
- GP1707D07 concentration, Mean ([1]; D26, 6h): 21.6 ng/mL
- GP1707D07 concentration, Mean ([1]; D26, 8h): 20.0 ng/mL
- GP1707D07 concentration, Mean ([1]; D26, 12h): 17.6 ng/mL
- GP1707D07 concentration, Mean ([1]; D26, 24h): 15.6 ng/mL
- GP1707D07 concentration, Mean ([1]; D26, 36h): 14.2 ng/mL
- GP1707D07 concentration, Mean ([1]; D26, 48h): 12.5 ng/mL
- GP1707D07 concentration, Mean ([1]; D26, 72h): 10.1 ng/mL
- GP1707D07 concentration, Mean ([1]; D26, 120h): 7.1 ng/mL
- GP1707D07 concentration, Mean ([1]; D26, 168h): 5.4 ng/mL
- GP1707D07 concentration, Mean ([1]; D26, 264h): 3.3 ng/mL
- average ratio of GP1707D07 concentration at each time point (Period 2: Period 1) ([1]; within 24 h post-dose): 1.7–2.0
- C24 ([2]; all tested dose cohorts (20 mg–80 mg)): > 6.87 ng/mL
- time maintained above the target concentration (6.87 ng/mL) ([2]; dose cohorts 20 mg–80 mg): 72 to 136 h
- substrate of CYP3A4 (CYP3A4): is a substrate of CYP3A4
- inhibition or induction of liver enzymes (liver enzymes): do not significantly inhibit or induce liver enzymes

— PMC12022903, “Evaluation of drug-drug interaction between Suraxavir Marboxil (GP681) and itraconazole, and assessment of the impact of gene polymorphism” (Frontiers in Pharmacology, 2025)
